Assays:
LNCaP cells [1] = assay: PSA assay on tissue culture supernatants of LNCaP cells cultured with iron chelator; assay type: cell-based; details: for Molecules PSA Per Viable Cell / Total PSA / Molecules PSA Per Cell: 72 Hrs; for Total PSA: from 3.0 ml supernatant per well; for Molecules PSA Per Cell: total cells recovered
Protocol: (§1) Comment: Table 2 is data from one of three similar experiments in which cells were cultured for 72 hours following the methods described in the proposal (i.e., cells in 6-well plates for PSA studies and cells in 96-well plates for thymidine incorporation, both at the same cell concentration). […] For viable cells, the per cell production of PSA rose 33.6% (column 8: PSA value of 1.5×10E7 molecules per cell divided by control value of 1.13×10E7). […]

LNCaP cells [2] = assay: Thymidine (3H) incorporation, LNCaP cells in 96-well plates; assay type: cell-based; details: Homo sapiens, read-out: % Inhibition 3H
Protocol: Comment: Table 2 is data from one of three similar experiments in which cells were cultured for 72 hours following the methods described in the proposal (i.e., cells in 6-well plates for PSA studies and cells in 96-well plates for thymidine incorporation, both at the same cell concentration). […] For viable cells, the per cell production of PSA rose 33.6% (column 8: PSA value of 1.5×10E7 molecules per cell divided by control value of 1.13×10E7).

[3] = Cell counts and viability of LNCaP cells after culture with iron chelator; assay type: cell-based; details: human, LNCaP cells
Protocol: as §1

LNCaP cells [4] = assay: as above; assay type: cell-based; details: 72 Hrs
Protocol: as §1

transferrin receptor = transferrin receptor (Homo sapiens, UniProt P02786); details: Forsbeck et al.; cited from earlier work
transferrin receptor, sequence (P02786 whole entry): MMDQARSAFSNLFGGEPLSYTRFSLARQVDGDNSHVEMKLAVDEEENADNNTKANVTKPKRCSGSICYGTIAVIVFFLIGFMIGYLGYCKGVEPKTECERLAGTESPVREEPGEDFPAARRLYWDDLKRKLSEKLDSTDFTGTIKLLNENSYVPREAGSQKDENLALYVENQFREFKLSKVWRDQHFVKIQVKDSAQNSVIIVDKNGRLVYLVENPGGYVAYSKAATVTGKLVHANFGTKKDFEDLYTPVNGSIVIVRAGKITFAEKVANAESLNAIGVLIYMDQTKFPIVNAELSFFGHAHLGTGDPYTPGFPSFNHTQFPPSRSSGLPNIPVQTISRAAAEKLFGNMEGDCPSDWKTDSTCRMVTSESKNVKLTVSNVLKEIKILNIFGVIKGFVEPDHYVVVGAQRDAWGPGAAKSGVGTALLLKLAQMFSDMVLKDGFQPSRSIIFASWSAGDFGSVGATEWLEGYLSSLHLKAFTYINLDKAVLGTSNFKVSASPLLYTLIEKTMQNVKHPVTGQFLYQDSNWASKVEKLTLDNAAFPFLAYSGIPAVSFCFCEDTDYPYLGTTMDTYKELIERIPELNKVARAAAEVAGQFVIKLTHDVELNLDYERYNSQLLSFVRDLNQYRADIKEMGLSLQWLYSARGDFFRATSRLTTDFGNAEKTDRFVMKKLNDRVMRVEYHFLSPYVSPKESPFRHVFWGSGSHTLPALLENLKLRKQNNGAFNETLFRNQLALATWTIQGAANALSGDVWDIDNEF

CC(=O)N(O)CCCCCNC(=O)CCC(=O)N(O)CCCCCNC(=O)CCC(=O)N(O)CCCCCN [Desferal, Deferoxamine]
rise in production of PSA per viable cell versus control (LNCaP cells [1]; DFO 2.5 micrograms/ml, 72 hours): 33.6%
Molecules PSA Per Viable Cell (LNCaP cells [1]; Desferal 0.1 ug/ml): 1.28 × 10^7
Total PSA (LNCaP cells [1]; Desferal 0.1 ug/ml): 710 ng
Molecules PSA Per Cell (LNCaP cells [1]; Desferal 0.1 ug/ml): 1.20 × 10^7
Molecules PSA Per Viable Cell (LNCaP cells [1]; Desferal 0.25 ug/ml): 1.30 × 10^7
Total PSA (LNCaP cells [1]; Desferal 0.25 ug/ml): 710 ng
Molecules PSA Per Cell (LNCaP cells [1]; Desferal 0.25 ug/ml): 1.22 × 10^7
Molecules PSA Per Viable Cell (LNCaP cells [1]; Desferal 0.50 ug/ml): 1.14 × 10^7
Total PSA (LNCaP cells [1]; Desferal 0.50 ug/ml): 650 ng
Molecules PSA Per Cell (LNCaP cells [1]; Desferal 0.50 ug/ml): 1.06 × 10^7
Molecules PSA Per Viable Cell (LNCaP cells [1]; Desferal 1.0 ug/ml): 1.12 × 10^7
Total PSA (LNCaP cells [1]; Desferal 1.0 ug/ml): 644 ng
Molecules PSA Per Cell (LNCaP cells [1]; Desferal 1.0 ug/ml): 1.04 × 10^7
Molecules PSA Per Viable Cell (LNCaP cells [1]; Desferal 2.0 ug/ml): 1.41 × 10^7
Total PSA (LNCaP cells [1]; Desferal 2.0 ug/ml): 642 ng
Molecules PSA Per Cell (LNCaP cells [1]; Desferal 2.0 ug/ml): 1.32 × 10^7
Molecules PSA Per Viable Cell (LNCaP cells [1]; Desferal 2.5 ug/ml): 1.51 × 10^7
Total PSA (LNCaP cells [1]; Desferal 2.5 ug/ml): 627 ng
Molecules PSA Per Cell (LNCaP cells [1]; Desferal 2.5 ug/ml): 1.42 × 10^7
Molecules PSA Per Viable Cell (LNCaP cells [1]; Desferal 3.0 ug/ml): 1.59 × 10^7
Total PSA (LNCaP cells [1]; Desferal 3.0 ug/ml): 587 ng
Molecules PSA Per Cell (LNCaP cells [1]; Desferal 3.0 ug/ml): 1.45 × 10^7
Molecules PSA Per Viable Cell (LNCaP cells [1]; Desferal 4.0 ug/ml): 1.80 × 10^7
Total PSA (LNCaP cells [1]; Desferal 4.0 ug/ml): 611 ng
Molecules PSA Per Cell (LNCaP cells [1]; Desferal 4.0 ug/ml): 1.54 × 10^7
inhibition at 0.1 µg/mL (LNCaP cells [2]): 1.8%
inhibition at 0.25 µg/mL (LNCaP cells [2]): 6.8%
inhibition at 0.5 µg/mL (LNCaP cells [2]): 7.4%
inhibition at 1 µg/mL (LNCaP cells [2]): 10.6%
inhibition at 2 µg/mL (LNCaP cells [2]): 21.1%
inhibition at 2.5 µg/mL (LNCaP cells [2]): 26.8%
inhibition at 3 µg/mL (LNCaP cells [2]): 40.3%
inhibition at 4 µg/mL (LNCaP cells [2]): 52.7%
viability at 72 h, 0.1 ug/ml ([3]; Desferal 0.1 ug/ml): 93%
viability at 72 h, 0.25 ug/ml ([3]; Desferal 0.25 ug/ml): 93.8%
viability at 72 h, 0.5 ug/ml ([3]; Desferal 0.50 ug/ml): 93.4%
viability at 72 h, 1 ug/ml ([3]; Desferal 1.0 ug/ml): 92.2%
viability at 72 h, 2 ug/ml ([3]; Desferal 2.0 ug/ml): 98.3%
viability at 72 h, 2.5 ug/ml ([3]; Desferal 2.5 ug/ml): 94.3%
viability at 72 h, 3 ug/ml ([3]; Desferal 3.0 ug/ml): 90.9%
viability at 72 h, 4 ug/ml ([3]; Desferal 4.0 ug/ml): 85.4%
Total Cells (LNCaP cells [4]; Desferal 0.1 ug/ml): 1.09 × 10^6
Total Viable Cells (LNCaP cells [4]; Desferal 0.1 ug/ml): 1.01 × 10^6
Total Cells (LNCaP cells [4]; Desferal 0.25 ug/ml): 1.07 × 10^6
Total Viable Cells (LNCaP cells [4]; Desferal 0.25 ug/ml): 1.00 × 10^6
Total Cells (LNCaP cells [4]; Desferal 0.50 ug/ml): 1.13 × 10^6
Total Viable Cells (LNCaP cells [4]; Desferal 0.50 ug/ml): 1.06 × 10^6
Total Cells (LNCaP cells [4]; Desferal 1.0 ug/ml): 1.14 × 10^6
Total Viable Cells (LNCaP cells [4]; Desferal 1.0 ug/ml): 1.05 × 10^6
Total Cells (LNCaP cells [4]; Desferal 2.0 ug/ml): .900 × 10^6
Total Viable Cells (LNCaP cells [4]; Desferal 2.0 ug/ml): 840 × 10^6
Total Cells (LNCaP cells [4]; Desferal 2.5 ug/ml): .810 × 10^6
Total Viable Cells (LNCaP cells [4]; Desferal 2.5 ug/ml): .760 × 10^6
Total Cells (LNCaP cells [4]; Desferal 3.0 ug/ml): .744 × 10^6
Total Viable Cells (LNCaP cells [4]; Desferal 3.0 ug/ml): .680 × 10^6
Total Cells (LNCaP cells [4]; Desferal 4.0 ug/ml): .730 × 10^6
Total Viable Cells (LNCaP cells [4]; Desferal 4.0 ug/ml): .620 × 10^6

Cc1ccc(C(=O)Nc2ccc(S(=O)(=O)O)c3cc(S(=O)(=O)O)cc(S(=O)(=O)O)c23)cc1NC(=O)c1cccc(NC(=O)Nc2cccc(C(=O)Nc3cc(C(=O)Nc4ccc(S(=O)(=O)O)c5cc(S(=O)(=O)O)cc(S(=O)(=O)O)c45)ccc3C)c2)c1 [suramin]
binding of transferrin to its receptor (transferrin receptor): partially inhibit
